Measurements reported in US6964949B2, “Pharmaceutical compositions for promoting the growth of gram-positive bacilli and increasing the acidity in the vagina and the use thereof” (Shanghai Jiao Da Onlly Co., Ltd., priority 2000, dated 2005).

How the values were obtained:
Format in all cases: cell-based
[1] = test system: vaginal secretion specimen of a patient suffering from typical bacterial vaginosis; test: Experiment Example 5: pH of culture samples (production of acids); details: 10.0% maltose, 1.0% yeast extract, 1.6% xanthan gum
Source text: (§1) • (1)The preparation of the compositions: Maltose was used to prepare the following compositions according to the method mentioned above: • A. 10.0% maltose, 1.0% yeast extract, 1.6% xanthan gum, pH adjusted to 4.4; • B. 10.0% maltose, 1.0% yeast extract, 1.6% xanthan gum, pH adjusted to 4.8; • C. 10.0% maltose, 1.0% yeast extract, 1.6% xanthan gum, pH adjusted to 5.1; • D. 10.0% maltose, 1.0% yeast extract, 1.6% xanthan gum, pH adjusted to 5.4; • E. 10.0% maltose, 1.0% yeast extract, 1.6% xanthan gum, pH adjusted to 5.8; • F. 10.0% maltose, 1.0% yeast extract, 1.6% xanthan gum, pH adjusted to 6.4; • G. 10.0% maltose, 1.0% yeast extract, 1.6% xanthan gum, pH adjusted to 6.8; • H. 10.0% maltose, 1.0% yeast extract, 1.6% xanthan gum, pH adjusted to 7.2; • (2)The preparation of the test tubes: Compositions prepared above were filled into the test tubes, with each tube containing 5 ml, sterilized, and kept until use for experiments. • (3)Specimen suspension: Vaginal secretion was taken from one of the patients suffering from typical bacterial vaginosis with a cotton swab, then the swab was washed in 2 ml sterilized Trypcase-soy Broth immediately, and thus the specimen suspension was ready. […] Then the tubes were placed in a candle jar and cultivated at 37° C. After 24 hours and 48 hours' culture, culture samples were taken respectively from each of the tubes, then the Gram smears of the samples were observed and the pH values of culture samples were tested.

[2] = test system: vaginal secretion specimen of a patient suffering from typical bacterial vaginosis; test: Experiment Example 3: pH of culture samples (production of acids); details: 2.5% saccharide, 1.0% yeast extract, 1.6% xanthan gum, pH 6.2, candle jar, 37° C.
Description: (§2) • (1) The preparation of the compositions: Maltose and sucrose were used respectively to prepare the following composition according to the methods mentioned above: • A. 2.5% maltose, 1.0% yeast extract, 1.6% xanthan gum, pH adjusted to 6.2; • B. 2.5% sucrose, 1.0 yeast extract, 1.6% xanthan gum, pH adjusted to 6.2; • (2) The preparation of the test tubes: Compositions as prepared above were filled into the test tubes, with each tube containing 5 ml, sterilized, and kept until use for experiment. • (3) Specimen suspension: Vaginal secretion was taken from one of the patients suffering from typical bacterial vaginosis with a cotton swab, then the swab was washed in 2 ml sterilized Trypcase-soy Broth immediately, and thus the specimen suspension was ready. […] Then the tubes were placed in a candle jar and cultivated at 37° C. After 24 hours and 48 hours' culture, culture samples were taken respectively from each of the tubes, then the Gram smears of the samples were observed and the pH values of culture samples were tested.

Gram-negative cocci [3] = test: Experiment Example 5: influence of composition pH (10.0% maltose), specimen culture, Gram smear; details: 1.0% yeast extract, 1.6% xanthan gum
Source text: as §1

Gram-negative bacilli [4] = test: as above; details: 1.0% yeast extract, 1.6% xanthan gum
Source text: as §1

Gram-negative cocci [5] = test: Experiment Example 3: 2.5% maltose or sucrose, specimen culture, Gram smear; details: 2.5% saccharide, 1.0% yeast extract, 1.6% xanthan gum, pH 6.2, candle jar, 37° C.
Description: as §2

Gram-negative bacilli [6] = test: as above; details: 2.5% saccharide, 1.0% yeast extract, 1.6% xanthan gum, pH 6.2, candle jar, 37° C.
Description: as §2

Gram-positive bacilli = test: as above; details: 2.5% saccharide, 1.0% yeast extract, 1.6% xanthan gum, pH 6.2, candle jar, 37° C.
Description: as §2

[7] = pH of the composition 4.4, 24 hours
[8] = pH of the composition 4.4, 48 hours
[9] = pH of the composition 4.8, 24 hours
[10] = pH of the composition 4.8, 48 hours
[11] = pH of the composition 5.1, 24 hours
[12] = pH of the composition 5.1, 48 hours
[13] = pH of the composition 5.4, 24 hours
[14] = pH of the composition 5.4, 48 hours
[15] = pH of the composition 5.8, 24 hours
[16] = pH of the composition 5.8, 48 hours
[17] = pH of the composition 6.4, 24 hours
[18] = pH of the composition 6.4, 48 hours
[19] = pH of the composition 6.8, 24 hours
[20] = pH of the composition 6.8, 48 hours
[21] = pH of the composition 7.2, 24 hours
[22] = pH of the composition 7.2, 48 hours

OC[C@H]1O[C@H](O[C@H]2[C@H](O)[C@@H](O)[C@H](O)O[C@@H]2CO)[C@H](O)[C@@H](O)[C@@H]1O [Maltose, maltose]
pH, 24 hours culture ([1]; pH of the composition 4.4): 4.4 | pH, 48 hours culture ([1]; pH of the composition 4.4): 4.4 | pH, 24 hours culture ([1]; pH of the composition 4.8): 4.8 | pH, 48 hours culture ([1]; pH of the composition 4.8): 4.4-4.8 | pH, 24 hours culture ([1]; pH of the composition 5.1): 4.6 | pH, 48 hours culture ([1]; pH of the composition 5.1): 4.4-4.6 | pH, 24 hours culture ([1]; pH of the composition 5.4): 5.4 | pH, 48 hours culture ([1]; pH of the composition 5.4): 4.1-4.4 | pH, 24 hours culture ([1]; pH of the composition 5.8): 4.8 | pH, 48 hours culture ([1]; pH of the composition 5.8): 4.1 | pH, 24 hours culture ([1]; pH of the composition 6.4): 4.4 | pH, 48 hours culture ([1]; pH of the composition 6.4): 4.1 | pH, 24 hours culture ([1]; pH of the composition 6.8): 5.4 | pH, 48 hours culture ([1]; pH of the composition 6.8): 4.4 | pH, 24 hours culture ([1]; pH of the composition 7.2): 5.4 | pH, 48 hours culture ([1]; pH of the composition 7.2): 4.1 | pH, 24 hours-culture ([2]; 24 hours): 7.0 | pH, 48 hours-culture ([2]; 48 hours): 6.4 | Bacteria G − c (Gram-negative cocci), 24 hours culture (Gram-negative cocci [3]; [7]): G − c, − (No or less than one bacterium per field of version under oil-immersion lens) | Bacteria G − c (Gram-negative cocci), 48 hours culture (Gram-negative cocci [3]; [8]): G − c, − (No or less than one bacterium per field of version under oil-immersion lens) | Bacteria G − c (Gram-negative cocci), 24 hours culture (Gram-negative cocci [3]; [9]): G − c, − (No or less than one bacterium per field of version under oil-immersion lens) | Bacteria G − c (Gram-negative cocci), 48 hours culture (Gram-negative cocci [3]; [10]): G − c, − (No or less than one bacterium per field of version under oil-immersion lens) | Bacteria G − c (Gram-negative cocci), 24 hours culture (Gram-negative cocci [3]; [11]): G − c, − (No or less than one bacterium per field of version under oil-immersion lens) | Bacteria G − c (Gram-negative cocci), 48 hours culture (Gram-negative cocci [3]; [12]): G − c, − (No or less than one bacterium per field of version under oil-immersion lens) | Bacteria G − c (Gram-negative cocci), 24 hours culture (Gram-negative cocci [3]; [13]): G − c, − (No or less than one bacterium per field of version under oil-immersion lens) | Bacteria G − c (Gram-negative cocci), 48 hours culture (Gram-negative cocci [3]; [14]): G − c, − (No or less than one bacterium per field of version under oil-immersion lens) | Bacteria G − c (Gram-negative cocci), 24 hours culture (Gram-negative cocci [3]; [15]): G − c, − (No or less than one bacterium per field of version under oil-immersion lens) | Bacteria G − c (Gram-negative cocci), 48 hours culture (Gram-negative cocci [3]; [16]): G − c, − (No or less than one bacterium per field of version under oil-immersion lens) | Bacteria G − c (Gram-negative cocci), 24 hours culture (Gram-negative cocci [3]; [17]): G − c, − (No or less than one bacterium per field of version under oil-immersion lens) | Bacteria G − c (Gram-negative cocci), 48 hours culture (Gram-negative cocci [3]; [18]): G − c, − (No or less than one bacterium per field of version under oil-immersion lens) | Bacteria G − c (Gram-negative cocci), 24 hours culture (Gram-negative cocci [3]; [19]): G − c, − (No or less than one bacterium per field of version under oil-immersion lens) | Bacteria G − c (Gram-negative cocci), 48 hours culture (Gram-negative cocci [3]; [20]): G − c, − (No or less than one bacterium per field of version under oil-immersion lens) | Bacteria G − c (Gram-negative cocci), 24 hours culture (Gram-negative cocci [3]; [21]): G − c, − (No or less than one bacterium per field of version under oil-immersion lens) | Bacteria G − c (Gram-negative cocci), 48 hours culture (Gram-negative cocci [3]; [22]): G − c, − (No or less than one bacterium per field of version under oil-immersion lens) | Bacteria G − b (Gram-negative bacilli), 24 hours culture (Gram-negative bacilli [4]; [7]): G − b, ++ (About 10-99 bacteria per field of vision under oil-immersion lens) | Bacteria G − b (Gram-negative bacilli), 48 hours culture (Gram-negative bacilli [4]; [8]): G − b, ++ (About 10-99 bacteria per field of vision under oil-immersion lens) | Bacteria G − b (Gram-negative bacilli), 24 hours culture (Gram-negative bacilli [4]; [9]): G − b, ++ (About 10-99 bacteria per field of vision under oil-immersion lens) | Bacteria G − b (Gram-negative bacilli), 48 hours culture (Gram-negative bacilli [4]; [10]): G − b, ++ (About 10-99 bacteria per field of vision under oil-immersion lens) | Bacteria G − b (Gram-negative bacilli), 24 hours culture (Gram-negative bacilli [4]; [11]): G − b, ++ (About 10-99 bacteria per field of vision under oil-immersion lens) | Bacteria G − b (Gram-negative bacilli), 48 hours culture (Gram-negative bacilli [4]; [12]): G − b, ++ (About 10-99 bacteria per field of vision under oil-immersion lens) | Bacteria G − b (Gram-negative bacilli), 24 hours culture (Gram-negative bacilli [4]; [13]): G − b, + (1-9 bacteria per field of vision under oil-immersion lens) | Bacteria G − b (Gram-negative bacilli), 48 hours culture (Gram-negative bacilli [4]; [14]): G − b, ++ (About 10-99 bacteria per field of vision under oil-immersion lens) | Bacteria G − b (Gram-negative bacilli), 24 hours culture (Gram-negative bacilli [4]; [15]): G − b, ++ (About 10-99 bacteria per field of vision under oil-immersion lens) | Bacteria G − b (Gram-negative bacilli), 48 hours culture (Gram-negative bacilli [4]; [16]): G − b, ++ (About 10-99 bacteria per field of vision under oil-immersion lens) | Bacteria G − b (Gram-negative bacilli), 24 hours culture (Gram-negative bacilli [4]; [17]): G − b, ++ (About 10-99 bacteria per field of vision under oil-immersion lens) | Bacteria G − b (Gram-negative bacilli), 48 hours culture (Gram-negative bacilli [4]; [18]): G − b, ++ (About 10-99 bacteria per field of vision under oil-immersion lens) | Bacteria G − b (Gram-negative bacilli), 24 hours culture (Gram-negative bacilli [4]; [19]): G − b, ++ (About 10-99 bacteria per field of vision under oil-immersion lens) | Bacteria G − b (Gram-negative bacilli), 48 hours culture (Gram-negative bacilli [4]; [20]): G − b, ++ (About 10-99 bacteria per field of vision under oil-immersion lens) | Bacteria G − b (Gram-negative bacilli), 24 hours culture (Gram-negative bacilli [4]; [21]): G − b, + (1-9 bacteria per field of vision under oil-immersion lens) | Bacteria G − b (Gram-negative bacilli), 48 hours culture (Gram-negative bacilli [4]; [22]): G − b, ++ (About 10-99 bacteria per field of vision under oil-immersion lens) | Bacteria G − c (Gram-negative cocci), 24 hours-culture (Gram-negative cocci [5]; 24 hours): G − c, − (No or less than one bacterium per field of version under oil-immersion lens) | Bacteria G − c (Gram-negative cocci), 48 hours-culture (Gram-negative cocci [5]; 48 hours): G − c, − (No or less than one bacterium per field of version under oil-immersion lens) | Bacteria G − b (Gram-negative bacilli), 24 hours-culture (Gram-negative bacilli [6]; 24 hours): G − b, +++ (About 100 bacteria or more per field vision under oil-immersion lens, even uncountable) | Bacteria G − b (Gram-negative bacilli), 48 hours-culture (Gram-negative bacilli [6]; 48 hours): G − b, + (1-9 bacteria per field of vision under oil-immersion lens) | Bacteria G + b (Gram-positive bacilli), 24 hours-culture (Gram-positive bacilli; 24 hours): G + b, + (1-9 bacteria per field of vision under oil-immersion lens) | Bacteria G + b (Gram-positive bacilli), 48 hours-culture (Gram-positive bacilli; 48 hours): G + b, +++ (About 100 bacteria or more per field vision under oil-immersion lens, even uncountable)
